The results in this text go back to patent US11667632B2, “2-(1H-indazol-3-yl)-3H-imidazo[4,5-C]pyridines and their anti-inflammatory uses thereof” (BioSplice Therapeutics, Inc., priority 2015, dated 2023).

For orientation: EC50 means the concentration that produces a half-maximal response. Higher therefore signals weaker potency.

In the first experiment the test system is IL-6. Kind of experiment: Inhibition of IL-6 in LPS-stimulated human monocyte cells (THP-1), HTRF. Format: cell-based. Conditions: Homo sapiens; THP-1 cells, LPS 500 ng/mL, IL-6 by HTRF. Here is the method: Human Monocyte Cell Culture: A human monocyte cell line (THP-1 cells; Catalog #TIB-202, ATCC, Manassas, Va.) was cultured in Roswell Park Memorial Institute (RPMI) 1640 Medium (Catalog #21870-100, Buffalo, N.Y.) with 1% L-glutamine, 1% HEPES, 1% sodium pyruvate, 2% sodium bicarbonate supplemented with 100 units/mL penicillin, 50 μg/mL streptomycin, 2-mercaptoethanol (0.05 mM) [basal medium] and 10% fetal bovine serum (Catalog #16140089, Life Technologies, Carlsbad, Calif.) at 37° C. and 5% CO2.
Compound Screening: THP-1 cells were cultured in basal media with 1% FBS for 24 hours before the start of the assay. Each compound of Formula (I) was dissolved in DMSO as a 10 mM stock and used to prepare compound source plates. Serial dilution (1:3, 10-point dose-response curves starting from 10 μM) and compound transfer was performed using the ECHO 550 (Labcyte, Sunnyvale, Calif.) into 384-well white low volume assay plates (Greiner Bio-One) with appropriate DMSO backfill for a final DMSO concentration of 0.1%. THP-1 cells were plated at 5000 cells/well in the 384-well plates and incubated at 37° C. for 2 h. 500 ng/mL of LPS was added after 2 hours and cells were incubated for another 22 hours at 37° C. Plates were spun in a centrifuge for 1 minute at 10,000 rpm and a mixture of anti-IL-6 XL665, and anti-IL-6 Cryptate diluted in reconstitution buffer (Cisbio Inc.) was added to each well. Following incubation for 3 hrs at room temperature, homogeneous time-resolved fluorescence (HTRF) was measured using the Envision (Perkin Elmer) at 665 nm and […]. The ratio of fluorescence at 665 nm to 620 nm was used as a readout for IL-6 quantification. All samples were processed in duplicate. Readings were normalized to DMSO treated cells and normalized activities were utilized for EC50 calculations using the dose-response log (inhibitor) vs. response -variable slope (four parameters) nonlinear regression feature available in GraphPad Prism 5.0 (or Dotmatics). For EC50 of >10 μM, the percent inhibition at 10 μM is provided.
For the molecule `CC(C)(C)CC(=O)Nc1cncc(-c2ccc3[nH]nc(-c4nc5c(-c6ccsc6)cncc5[nH]4)c3c2)c1` [Compound 304], the EC50 amounted to 40 nM.
Consider `c1cncc(-c2ccc3[nH]nc(-c4nc5c(-c6cccnc6)cncc5[nH]4)c3c2)c1` [Compound 136], for which the 50% effective concentration (EC50) was determined as 125 nM.
With `CCCCC(=O)Nc1cncc(-c2ccc3[nH]nc(-c4nc5c(-c6ccoc6)cncc5[nH]4)c3c2)c1` [Compound 329], a half-maximal response (EC50) required 58 nM. This EC50 lies about 2.2-fold lower than the previous one.
Take `O=C(Nc1cncc(-c2ccc3[nH]nc(-c4nc5c(-c6ccc(F)cc6)cncc5[nH]4)c3c2)c1)c1ccccc1` [Compound 104]: the EC50 stood at 7240 nM. Against the preceding molecule, the EC50 is about 120-fold higher.
On the same count and under the same terms, to `O=C(Nc1cncc(-c2ccc3[nH]nc(-c4nc5c(-c6cccc(F)c6)cncc5[nH]4)c3c2)c1)C1CCCCC1` [Compound 94] belongs 19 nM.
Turning to `c1cc(-c2cncc3[nH]c(-c4n[nH]c5ccc(-c6cncc(CN7CCCC7)c6)cc45)nc23)ccn1` [Compound 163], the concentration giving a half-maximal response (EC50) was above 10000 nM.
`CC(C)CC(=O)Nc1cncc(-c2ccc3[nH]nc(-c4nc5c(-c6cc(F)cc(NCCN(C)C)c6)cncc5[nH]4)c3c2)c1` [Compound 349] had a half-maximal effective concentration (EC50) of 34 nM.
On the same count and under the same terms, with `Cc1ccncc1-c1ccc2[nH]nc(-c3nc4c(-c5ccsc5)cncc4[nH]3)c2c1` [Compound 293] the figure was 58 nM; with `CC(C)(C)CC(=O)Nc1cncc(-c2ccc3[nH]nc(-c4nc5ccncc5[nH]4)c3c2)c1` [Compound 280], 731 nM.
`CN(C)Cc1cncc(-c2ccc3[nH]nc(-c4nc5c(N6CCN(C)CC6)cncc5[nH]4)c3c2)c1` [Compound 3] displayed an EC50 of 273 nM.
Same read-out and setting: to `O=C(Cc1ccccc1)Nc1cncc(-c2ccc3[nH]nc(-c4nc5c(-c6ccoc6)cncc5[nH]4)c3c2)c1` [Compound 321] belongs 697 nM; to `c1cc(-c2cncc3[nH]c(-c4n[nH]c5ccc(-c6cncc(CN7CCCCC7)c6)cc45)nc23)ccn1` [Compound 164], 433 nM.
For the molecule `CC(C)(C)C(=O)Nc1cncc(-c2ccc3[nH]nc(-c4nc5c(N6CCCCC6)cncc5[nH]4)c3c2)c1` [Compound 205], the 50% effective concentration (EC50) was determined as 16 nM.
On the same count and under the same terms, with `Cc1ccncc1-c1ccc2[nH]nc(-c3nc4c(-c5ccc(F)cc5)cncc4[nH]3)c2c1` [Compound 99] the figure was 40 nM; with `CN1CCN(c2cncc3[nH]c(-c4n[nH]c5ccc(-c6cncc(NC(=O)C7CC7)c6)cc45)nc23)CC1` [Compound 260], 295 nM.
`FC1(F)CCN(Cc2cncc(-c3ccc4[nH]nc(-c5nc6c(N7CCCCC7)cncc6[nH]5)c4c3)c2)C1` [Compound 342] registered an EC50 of 109 nM.
Same read-out and setting: to `CC(C)CC(=O)Nc1cncc(-c2ccc3[nH]nc(-c4nc5c(-c6cccs6)cncc5[nH]4)c3c2)c1` [Compound 397] belongs 14 nM; to `CC(C)CC(=O)Nc1cncc(-c2ccc3[nH]nc(-c4nc5c(-c6ccccc6F)cncc5[nH]4)c3c2)c1` [Compound 11], 33 nM; to `O=C(Nc1cncc(-c2ccc3[nH]nc(-c4nc5c(-c6cccc(F)c6)cncc5[nH]4)c3c2)c1)C1CC1` [Compound 91], 19 nM.
On to `CC(C)C(=O)Nc1cncc(-c2ccc3[nH]nc(-c4nc5c(-c6ccccc6F)cncc5[nH]4)c3c2)c1` [Compound 31], for which the EC50 came to 14 nM.
On to `CN1CCN(c2cncc3[nH]c(-c4n[nH]c5ccc(-c6cncc(N7CCOCC7)c6)cc45)nc23)CC1` [Compound 5], for which a half-maximal effect (EC50) was put at 349 nM.
In turn, `CN1CCN(c2cncc3[nH]c(-c4n[nH]c5ccc(-c6cncc(NC(=O)C7CCCCC7)c6)cc45)nc23)CC1` [Compound 263] registered a concentration giving a half-maximal response (EC50) of 224 nM.
Take `Nc1cncc(-c2ccc3[nH]nc(-c4nc5c(-c6ccsc6)cncc5[nH]4)c3c2)c1` [Compound 291]: the EC50 was found to be 11 nM. Against the preceding molecule, the EC50 is about 20-fold lower.
Still for that read-out and setting: to `CN1CCN(c2cncc3[nH]c(-c4n[nH]c5ccc(-c6cncc(NC(=O)CC(C)(C)C)c6)cc45)nc23)CC1` [Compound 257] belongs 97 nM; to `Fc1ccccc1-c1cncc2[nH]c(-c3n[nH]c4ccc(-c5cncc(CN6CCCCC6)c5)cc34)nc12` [Compound 127], 138 nM.
On the same count and under the same terms, with `Nc1cncc(-c2ccc3[nH]nc(-c4nc5ccncc5[nH]4)c3c2)c1` [Compound 268] the figure was above 10000 nM; with `FC1(F)CCN(Cc2cncc(-c3ccc4[nH]nc(-c5nc6c(-c7ccsc7)cncc6[nH]5)c4c3)c2)C1` [Compound 346], 37 nM; with `O=C(Nc1cncc(-c2ccc3[nH]nc(-c4nc5ccncc5[nH]4)c3c2)c1)C1CCCCC1` [Compound 286], 827 nM.
The same measure, in the same setting: to `c1ccc(-c2cncc3[nH]c(-c4n[nH]c5ccc(-c6cccnc6)cc45)nc23)nc1` [Compound 177] belongs 30 nM; to `CC(C)CC(=O)Nc1cncc(-c2ccc3[nH]nc(-c4nc5c(-c6cc(F)cc(CNS(C)(=O)=O)c6)cncc5[nH]4)c3c2)c1` [Compound 373], 34 nM; to `CN(C)c1cncc(-c2ccc3[nH]nc(-c4nc5c(-c6ccsc6)cncc5[nH]4)c3c2)c1` [Compound 295], 47 nM.
On to `CCC(=O)Nc1cncc(-c2ccc3[nH]nc(-c4nc5c(-c6cccc(F)c6)cncc5[nH]4)c3c2)c1` [Compound 24], for which the 50% effective concentration (EC50) is 19 nM.
Regarding `CN(C)Cc1cncc(-c2ccc3[nH]nc(-c4nc5c(-c6cccc(F)c6)cncc5[nH]4)c3c2)c1` [Compound 89], the response was half-maximal at 44 nM (EC50).
Take `c1cc(-c2cncc3[nH]c(-c4n[nH]c5ccc(-c6cncc(CN7CCCCC7)c6)cc45)nc23)cs1` [Compound 303]: the response was half-maximal at 1010 nM (EC50).
For `CN(C)Cc1cncc(-c2ccc3[nH]nc(-c4nc5c(-c6ccsc6)cncc5[nH]4)c3c2)c1` [Compound 301], the midpoint of the response, the EC50, lay at 127 nM.
Still for that read-out and setting: to `Cc1ccncc1-c1ccc2[nH]nc(-c3nc4c(N5CCCCC5)cncc4[nH]3)c2c1` [Compound 202] belongs 1220 nM.
In turn, `CC(C)(C)C(=O)Nc1cncc(-c2ccc3[nH]nc(-c4nc5c(-c6ccc(F)cc6)cncc5[nH]4)c3c2)c1` [Compound 102] showed a concentration for a half-maximal effect (EC50) of 53 nM. Against the preceding molecule, the EC50 is about 23-fold lower.
The molecule `CN1CCN(c2cncc3[nH]c(-c4n[nH]c5ccc(-c6cncc(N)c6)cc45)nc23)CC1` [Compound 247] yielded an EC50 of 474 nM.
`Fc1cccc(-c2cncc3[nH]c(-c4n[nH]c5ccc(-c6cccnc6)cc45)nc23)c1` [Compound 15] displayed an EC50 of 23 nM. This EC50 is about 21-fold lower than that of the molecule before.
The same measure, in the same setting: with `CCC(=O)Nc1cncc(-c2ccc3[nH]nc(-c4nc5c(-c6ccccn6)cncc5[nH]4)c3c2)c1` [Compound 174] the figure was 16 nM; with `CC(C)(C)CC(=O)Nc1cncc(-c2ccc3[nH]nc(-c4nc5c(-c6cccc(F)c6)cncc5[nH]4)c3c2)c1` [Compound 90], 42 nM.
In the case of `O=C(Nc1cncc(-c2ccc3[nH]nc(-c4nc5ccncc5[nH]4)c3c2)c1)C1CC1` [Compound 283], the EC50 was above 10000 nM.
Same read-out and setting: with `CN(C)Cc1cncc(-c2ccc3[nH]nc(-c4nc5c(-c6ccccn6)cncc5[nH]4)c3c2)c1` [Compound 186] the figure was 1180 nM.
The same measure, in the same setting: with `CC(C)C(=O)Nc1cncc(-c2ccc3[nH]nc(-c4nc5c(N6CCN(C)CC6)cncc5[nH]4)c3c2)c1` [Compound 2] the figure was 290 nM; with `Nc1cncc(-c2ccc3[nH]nc(-c4nc5c(-c6ccc(F)cc6)cncc5[nH]4)c3c2)c1` [Compound 97], 122 nM.

Staying with this experiment, now noted: THP-1 cells, LPS-stimulated; dose-response starting from 10 μM.
As for `c1cc(-c2cncc3[nH]c(-c4n[nH]c5ccc(-c6cncc(CN7CCCC7)c6)cc45)nc23)ccn1` [Compound 163], the “percent inhibition of IL-6 at 10 μM” value was “(30.0%)”.
Take `Nc1cncc(-c2ccc3[nH]nc(-c4nc5ccncc5[nH]4)c3c2)c1` [Compound 268]: the “percent inhibition of IL-6 at 10 μM” value was “(27.6%)”.
Turning to `O=C(Nc1cncc(-c2ccc3[nH]nc(-c4nc5ccncc5[nH]4)c3c2)c1)C1CC1` [Compound 283], the “percent inhibition of IL-6 at 10 μM” value is on record as “(50.7%)”.
